These results are taken from patent US10632147B2, “Methods and compositions for treating inflammatory disorders” (priority 2007, dated 2020).

For this data set the following is noted: in vivo.

On to `NCc1ccc(S(N)(=O)=O)cc1` [Sulfamylon], for which the “safety profile (adverse effects)” value was “absence of adverse effects”.
